Tests used:
Conditions in all cases: after 48 h of drug treatment, average of three individual experiments
HepG2 = experiment: MTT cytotoxicity assay, HepG2 liver cancer cells; type: cell-based, human
Excerpt: (§1) The (E)-4-(4-acrylamidophenoxy)-N-methylpicolinamide conjugates of general formulae 6a-6z and 7a-7aj have been evaluated for their cytotoxicity in selected human cancer cell lines i.e., lung (A549), prostate (DU-145), ovarian (SKOV3) and liver (HepG2) using MTT assay and the values obtained were compared to a standard drug sorafenib, with the concentration (treatment done at ranging from 10^−4 to 10^−8 M) of the compound produces to 50% inhibition of cell growth (IC50) as shown in Table 1. […] The IC50 values (in μM) for compounds 6b, 6c, 6d, 6e, 6g, 6l, 6m, 6o, 6p, 6q, 6t, 6z, 7b and 7g have been illustrated in Table 1.

SKOV3 = experiment: MTT cytotoxicity assay, SKOV3 ovarian cancer cells; type: cell-based
Excerpt: as §1

DU145 = experiment: MTT cytotoxicity assay, DU145 prostate cancer cells; type: cell-based
Excerpt: as §1

A549 = experiment: MTT cytotoxicity assay, A549 lung cancer cells; type: cell-based
Excerpt: as §1

| Structure (SMILES) | IC50 (HepG2; Homo sapiens, HepG2, 48 h) [µM] | IC50 (HepG2) [µM] | IC50 (SKOV3; SK-OV-3, Human ovarian cancer) [µM] | IC50 (DU145; DU-145, Human prostate cancer) [µM] | IC50 (A549; A549, Human lung cancer) [µM] | IC50 (A549; Human lung cancer) [µM] | IC50 (DU145; Human prostate cancer) [µM] | IC50 (SKOV3; Human ovarian cancer) [µM] |
| --- | --- | --- | --- | --- | --- | --- | --- | --- |
| CNC(=O)c1cc(Oc2ccc(NC(=O)/C=C/c3ccc(OC)cc3)cc2)ccn1 [Compound 6b, (E)-4-(4-(3-(4-methoxyphenyl)acrylamido)phenoxy)-N-methylpicolinamide] | 8 to 13 | 9.5 | 10.6 ± 0.32 |  |  |  |  |  |
| CNC(=O)c1cc(Oc2ccc(NC(=O)/C=C/c3cccc(OC)c3OC)cc2)ccn1 [Compound 6c, (E)-4-(4-(3-(2,3-dimethoxyphenyl)acrylamido)phenoxy)-N-methylpicolinamide] | 8 to 13 | 12.4 ± 0.16 |  |  |  |  |  |  |
| CNC(=O)c1cc(Oc2ccc(NC(=O)/C=C/c3cc(OC)c(OC)c(OC)c3)cc2)ccn1 [Compound 6d, (E)-N-methyl-4-(4-(3-(3,4,5-trimethoxyphenyl)acrylamido)phenoxy)picolinamide] | 8 to 13 | 10.2 |  | 21.1 ± 0.18 |  |  |  |  |
| CNC(=O)c1cc(Oc2ccc(NC(=O)/C=C/c3cc(OC)ccc3OC)cc2)ccn1 [Compound 6e, (E)-4-(4-(3-(2,5-dimethoxyphenyl)acrylamido)phenoxy)-N-methylpicolinamide] | 8 to 13 | 10.1 |  | 29.5 ± 0.26 |  |  |  |  |
| CNC(=O)c1cc(Oc2ccc(NC(=O)/C=C/c3cccc(O)c3)cc2)ccn1 [Compound 6g, (E)-4-(4-(3-(3-hydroxyphenyl)acrylamido)phenoxy)-N-methylpicolinamide] | 8 to 13 | 10.9 ± 0.22 | 12 ± 0.11 |  |  |  |  |  |
| CNC(=O)c1cc(Oc2ccc(NC(=O)/C=C/c3ccc(Cl)cc3)cc2)ccn1 [Compound 6l, (E)-4-(4-(3-(4-chlorophenyl)acrylamido)phenoxy)-N-methylpicolinamide] | 8 to 13 | 9.6 | 12.6 ± 0.28 | 17.9 ± 0.24 |  |  |  |  |
| CNC(=O)c1cc(Oc2ccc(NC(=O)/C=C/c3ccc(Cl)c(Cl)c3)cc2)ccn1 [Compound 6m, (E)-4-(4-(3-(3,4-dichlorophenyl)acrylamido)phenoxy)-N-methylpicolinamide] | 8 to 13 | 12.4 ± 0.32 |  | 23.3 ± 0.28 | 9.5 ± 0.22 |  |  |  |
| CNC(=O)c1cc(Oc2ccc(NC(=O)/C=C/c3ccc(F)cc3)cc2)ccn1 [Compound 6o, (E)-4-(4-(3-(4-fluorophenyl)acrylamido)phenoxy)-N-methylpicolinamide] | 8 to 13 | 12.5 ± 0.18 |  |  |  |  |  |  |
| CNC(=O)c1cc(Oc2ccc(NC(=O)/C=C/c3ccc(F)cc3F)cc2)ccn1 [Compound 6p, (E)-4-(4-(3-(2,4-difluorophenyl)acrylamido)phenoxy)-N-methylpicolinamide] | 8 to 13 | 13.1 ± 0.26 |  |  | 49.4 ± 0.54 |  |  |  |
| CNC(=O)c1cc(Oc2ccc(NC(=O)/C=C/c3ccc(F)c(F)c3)cc2)ccn1 [Compound 6q, (E)-4-(4-(3-(3,4-difluorophenyl)acrylamido)phenoxy)-N-methylpicolinamide] | 8 to 13 | 11.1 ± 0.14 | 11.2 ± 0.26 |  |  |  |  |  |
| CNC(=O)c1cc(Oc2ccc(NC(=O)/C=C/c3ccc(C(F)(F)F)cc3)cc2)ccn1 [Compound 6t, (E)-N-methyl-4-(4-(3-(4-(trifluoromethyl)phenyl)acrylamido)phenoxy)picolinamide] | 8 to 13 | 8.2 |  |  | 22.3 ± 0.22 |  |  |  |
| CNC(=O)c1cc(Oc2ccc(NC(=O)/C=C/c3ccc([N+](=O)[O-])cc3)cc2)ccn1 [Compound 6z, (E)-N-methyl-4-(4-(3-(4-nitrophenyl)acrylamido)phenoxy)picolinamide] | 8 to 13 | 12.2 ± 0.22 |  | 28.7 ± 0.36 | 30.1 ± 0.28 |  |  |  |
| CNC(=O)c1cc(Oc2ccc(NC(=O)/C=C/c3ccco3)cc2)ccn1 [Compound 7b, (E)-4-(4-(3-(furan-2-yl)acrylamido)phenoxy)-N-methylpicolinamide] | 8 to 13 | 10.2 |  |  |  |  |  |  |
| CNC(=O)c1cc(Oc2ccc(NC(=O)/C=C/c3cccs3)cc2)ccn1 [Compound 7g, (E)-N-methyl-4-(4-(3-(thiophen-2-yl)acrylamido)phenoxy)picolinamide] | 8 to 13 | 13.2 ± 0.11 |  | 12.2 ± 0.26 | 24.1 ± 0.44 |  |  |  |
| CNC(=O)c1cc(Oc2ccc(NC(=O)Nc3ccc(Cl)c(C(F)(F)F)c3)cc2)ccn1 [Sorafenib, reference compound] |  | 14.5 |  |  |  | 6.1 ± 0.18 | 6.5 ± 0.22 | 9.5 ± 0.12 |

— patent US11174230B2, “(E)-4-(4-acrylamidophenoxy)-N-methylpicolinamide conjugates as potential anticancer agents” (Council of Scientific & Industrial Research, priority 2016, dated 2021)
